In publication PMC9229294, “Pyridazinones and Structurally Related Derivatives with Anti-Inflammatory Activity” (Molecules, 2022):
Where two headings read alike, the source gives them in different places.

How the values were obtained:
[1] = system: LPS-induced NF-κB activity in THP1-Blue cells; test: Inhibition of LPS-induced NF-κB transcriptional activity, alkaline phosphatase reporter, THP1-Blue cells; type: cell-based, human; conditions: for IC50: LPS-induced NF-κB activity, human THP1-Blue cells, N.A. = no activity at 50 µM; for Observed class for inhibition of NF-κB activity: experimentally observed, Active or N.A.; for Inhibition of LPS-induced NF-κB activity (in words): THP1-Blue cells
Description: (§1) Our studies included 175 compounds that were previously synthesized and characterized at NEUROFARBA, Pharmaceutical and Nutraceutical Section, University of Florence, Italy. We previously evaluated the FPR1/FPR2 agonist activity of these compounds by evaluating their ability to induce Ca^2+ mobilization in FPR-transfected HL60 cells and human neutrophils. […] All test compounds were dissolved in DMSO at stock concentrations of 10 mM and stored at −20 °C. For primary screening assays (analysis of NF-κB activation, IL-6 production, and cytotoxicity), the following final concentrations of the compounds were used: 3.125, 6.25, 12.5, 25, and 50 µM; the final concentration of DMSO was 1% in all samples.
The activation of NF-κB was measured using an alkaline phosphatase reporter assay in human monocytic THP1-Blue cells stably transfected with a secreted embryonic alkaline phosphatase gene that is under the control of a promoter inducible by the NF-κB. The THP1-Blue cells (2 × 10^5 cells/well) were pretreated with the test compound or DMSO for 30 min, followed by an addition of 250 ng/mL LPS for 24 h. Alkaline phosphatase activity was determined in cell supernatants using a QUANTI-Blue mix (InvivoGen) and measured at 655 nm and compared with positive control samples (LPS).

[2] = Cytotoxicity, CellTiter-Glo, THP1-Blue cells; type: cell-based, human; conditions: human, THP1-Blue cells
Description: as §1
The cytotoxicity was analyzed with a CellTiter-Glo Luminescent Cell Viability Assay Kit from Promega (Madison, WI, USA), according to the manufacturer’s protocol. The luminescent ATP assays are based on a luciferase enzymatic reaction which uses ATP from viable cells to generate photons. For this assay, the cells were incubated with the compounds under investigation for 24 h. After treatment, the cells were equilibrated to room temperature for 30 min, luciferase + luciferin substrate was added, and the samples were analyzed with a Fluoroscan Ascent FL (Thermo Fisher Scientific, Waltham, MA, USA). The IC50 values were calculated by plotting the percentage inhibition against the logarithm of the inhibitor concentration (at least five points).

FPR1 = biological target: T1, FPR1 (Homo sapiens, UniProt P21462); conditions: FPR1-transfected HL-60 cells; agonist activity from Table 1; read-out: Ca2+ Mobilization FPR1 EC50 in HL-60 Cells; cited from earlier work
T1 construct: expressed in transfected cells; host or cells: HL-60 cells (FPR1-HL60)
T1 sequence (P21462 1-350): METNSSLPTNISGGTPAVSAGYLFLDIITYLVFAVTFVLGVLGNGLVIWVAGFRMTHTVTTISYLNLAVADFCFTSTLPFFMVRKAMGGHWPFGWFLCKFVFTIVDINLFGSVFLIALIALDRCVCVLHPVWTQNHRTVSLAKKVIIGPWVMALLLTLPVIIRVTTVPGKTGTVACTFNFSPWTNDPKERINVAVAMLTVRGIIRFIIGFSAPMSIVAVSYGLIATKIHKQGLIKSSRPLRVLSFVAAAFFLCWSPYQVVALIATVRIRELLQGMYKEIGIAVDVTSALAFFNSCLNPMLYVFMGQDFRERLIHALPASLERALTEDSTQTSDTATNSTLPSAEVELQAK

FPR2 = biological target: T2, FPR2 (Homo sapiens, UniProt P25090); conditions: FPR2-transfected HL-60 cells; agonist activity from Table 1; read-out: Ca2+ Mobilization FPR2 EC50 in HL-60 Cells; cited from earlier work
T2 construct: expressed in transfected cells; host or cells: HL-60 cells (FPR2-HL60)
T2 sequence (P25090 1-351): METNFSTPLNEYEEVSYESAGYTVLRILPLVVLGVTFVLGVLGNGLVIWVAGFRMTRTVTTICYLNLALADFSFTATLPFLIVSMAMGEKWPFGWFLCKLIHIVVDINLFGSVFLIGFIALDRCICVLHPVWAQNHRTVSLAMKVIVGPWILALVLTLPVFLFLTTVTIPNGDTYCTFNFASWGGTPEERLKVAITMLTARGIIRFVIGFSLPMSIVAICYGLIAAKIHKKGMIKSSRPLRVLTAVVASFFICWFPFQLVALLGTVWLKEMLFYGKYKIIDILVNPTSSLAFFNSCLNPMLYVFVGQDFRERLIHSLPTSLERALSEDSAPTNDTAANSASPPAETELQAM

[3] = system: LPS-induced IL-6 production in MonoMac-6 cells; test: Inhibition of LPS-induced IL-6 production in MonoMac-6 cells (ELISA); type: cell-based, human; conditions: MonoMac-6 cells, 250 ng/mL LPS, 24 h
Description: as §1
A human IL-6 ELISA kit (BD Biosciences, San Jose, CA, USA) was used to measure IL-6 production. […] The cells were pretreated with the test compound or DMSO for 30 min, followed by addition of 250 ng/mL LPS for 24 h. The IC50 values for IL-6 production were calculated by plotting the percentage inhibition against the logarithm of the inhibitor concentration (at least five points).

[4] = N.T. = no cytotoxicity at 50 µM, read-out: Cytotoxicity IC50 in THP1-Blue Cells

| Compound | IC50 ([1]; Homo sapiens) [µM] | IC50 at 24 h [2, 4] [µM] | EC50 (FPR1) [µM] | EC50 (FPR2) [µM] | Observed class for inhibition of NF-κB activity [1] | Inhibition of LPS-induced NF-κB activity (in words) ([1]; 250 ng/mL LPS, 24 h) | IC50 [1] [µM] | IC50 at 24 h ([2]; 24 h, read-out: Cytotoxicity IC50) [µM] | Inhibition of LPS-induced NF-κB activity (in words) ([1]; peptide at 5 nM) | Inhibition of LPS-induced IL-6 production (in words) [3] |
| --- | --- | --- | --- | --- | --- | --- | --- | --- | --- | --- |
| CC1CC(c2ccccc2)=NN(CC(=O)Nc2ccc(F)cc2)C1=O (stereo not shown) [Compound 122] | 46.3 ± 2.4 | > 50 | > 50 | > 50 | – | – | – | – | – | – |
| Cc1cc(Cc2ccccc2)c(=O)n(CC(=O)Nc2ccc(Br)cc2)n1 [Compound 30] | 28.4 ± 5.7 | > 50 | – | – | Active | – | – | – | – | – |
| COc1ccc(-c2cc(C)nn(CC(=O)Nc3ccc(Br)cc3)c2=O)cc1 [Compound 19] | – | – | – | – | – | inactive | – | – | – | – |
| COc1cccc(Cc2cc(C)nn(CC(=O)Nc3ccc(F)cc3)c2=O)c1 [Compound 15] | 33.6 ± 2.1 | > 50 | – | – | Active | – | – | – | – | – |
| COc1ccc(Nc2c(C#N)cnn2CC(=O)Nc2ccc(Br)cc2)cc1 [Compound 156] | 25 ± 0.4 | > 50 | > 50 | > 50 | Active | – | – | – | – | – |
| Cc1cc(Cc2cccc(F)c2)c(=O)n(CC(=O)Nc2ccc(Br)cc2)n1 [Compound 64] | 27.9 ± 2.1 | > 50 | – | – | Active | – | – | – | – | – |
| COc1ccc(Cc2cc(-c3ccc(F)cc3)nn(CC(=O)Nc3ccc(Br)cc3)c2=O)cc1 [Compound 49] | 34.5 ± 2.1 | > 50 | > 50 | > 50 | Active | – | – | – | – | – |
| CC1CC(c2ccccc2)=NN(CC(=O)Nc2ccc(Br)cc2)C1=O (stereo not shown) [Compound 124] | 42.7 ± 0.3 | > 50 | 19.5 | 10.7 | – | – | – | – | – | – |
| COc1ccc2c(c1)c(CC(=O)Nc1ccc(Br)cc1)c(C)n2C(=O)c1ccc(Cl)cc1 [Compound 133] | – | – | – | – | – | inactive | – | – | – | – |
| CCC(C(=O)Nc1ccc(Br)cc1)n1nc(C)cc(Cc2cccc(OC)c2)c1=O (stereo not shown) [Compound 88] | 39.4 ± 4.2 | > 50 | 1.3 | 2.2 | – | – | – | – | – | – |
| CC(C)c1c(NC(=O)Nc2ccc(Cl)cc2)c(=O)n(-c2ccccc2)n1C [Cmpd43, N-(4-chlorophenyl)-N′-(5-isopropyl-1-methyl-3-oxo-2-phenyl-2,3-dihydro-1H-pyrazol-4-yl)urea, reference compound] | – | > 50 | – | – | – | did not inhibit | > 50 | – | – | – |
| Cc1cc(Cc2ccc(C(F)(F)F)cc2)c(=O)n(CC(=O)Nc2ccc(Br)cc2)n1 [Compound 66] | 31.5 ± 2.2 | 26.4 ± 4.7 | > 50 | > 50 | Active | – | – | 22 to 26 | – | – |
| COc1cccc(Nc2cn(-c3ccccc3)n(CC(=O)Nc3ccc(Br)cc3)c2=O)c1 [Compound 164] | 35.7 ± 1.9 | > 50 | 29 | > 50 | Active | – | – | – | – | – |
| O=C(Cn1c(-c2ccc(Cl)cc2)csc1=O)Nc1ccc(Br)cc1 [Compound 168] | 43.4 ± 4.2 | > 50 | 2.8 | 2.4 | Active | – | – | – | – | – |
| COc1cccc(Cn2cc(CC(=O)Nc3ccc(Br)cc3)c3ccccc32)c1 [Compound 134] | – | – | – | – | – | inactive | – | – | – | – |
| Cc1cc(-c2ccccc2)nn(CC(=O)Nc2ccc(Br)cc2)c1=O [Compound 67] | 30.9 ± 2.3 | > 50 | 21.5 | 10.1 | – | active | – | – | – | – |
| Cc1ccc(-n2ccc(=O)n(CC(=O)Nc3ccc(Br)cc3)c2=O)cc1 [Compound 149] | 43 ± 3.9 | > 50 | 13.6 | 14.9 | Active | – | – | – | – | – |
| CCCCOc1ccc(-c2c(OC)cnn(Cc3ccc(OC)cc3)c2=O)cc1 [Compound 109] | 31.3 ± 1.6 | > 50 | > 50 | > 50 | Active | – | – | – | – | – |
| CCC(C)(C(=O)Nc1ccc(Br)cc1)n1nc(C)cc(Cc2cccc(OC)c2)c1=O (stereo not shown) [Compound 90] | 39.2 ± 6.7 | > 50 | 1.5 | 2.1 | – | – | – | – | – | – |
| COc1cccc(-c2nn(CC(=O)Nc3ccc(Br)cc3)c(C)c2C#N)c1 [Compound 160] | – | > 50 | 8.2 | 4.8 | Active | – | 28.8 ± 2 | – | – | – |
| N-formyl-Met-Leu-Phe [fMLF, reference compound] | – | – | – | – | – | – | – | – | did not inhibit | did not affect |
| COc1cccc(Cc2cc(C)nn(CC(=O)Nc3ccc([N+](=O)[O-])cc3)c2=O)c1 [Compound 5] | 46.1 ± 1 | > 50 | – | – | Active | – | – | – | – | – |
| COc1cccc(Cc2cc(C)nn(CCNC(=O)Nc3ccc(Br)cc3)c2=O)c1 [Compound 113] | 37 ± 0.4 | > 50 | – | – | Active | – | – | – | – | – |
| COc1cccc(Cc2cc(C)nn(CC(=O)Nc3ccc(Br)cc3)c2=O)c1 [Compound 1] | – | – | – | – | – | inactive | – | – | – | – |
| COc1ccc(N(c2ccc(OC)cc2)c2cc(C)nn(CC(=O)Nc3ccc(Br)cc3)c2=O)cc1 [Compound 50] | 32.8 ± 0.7 | > 50 | > 50 | > 50 | Active | – | – | – | – | – |
